Measured values as given in the NIST ThermoML archive (doi:10.1021/je100476h).

Experiment: mn = molality of the nth substance listed, in mol/kg
Details: 101 kPa, Liquid

NCC(=O)O [2-aminoacetic acid] + O
mass density [kg/m3]
Details | m1 = 0.1429 | m1 = 0.2709 | m1 = 0.3812 | m1 = 0.4102 | m1 = 0.4801 | m1 = 0.5732
288.15 K | 1003.76 | 1007.85 | 1011.33 | 1012.23 | 1014.4 | 1017.27
298.15 K | 1001.56 | 1005.54 | 1008.93 | 1009.8 | 1011.92 | 1014.71
308.15 K | 998.477 | 1002.4 | 1005.73 | 1006.59 | 1008.66 | 1011.41
318.15 K | 994.636 | 998.503 | 1001.79 | 1002.63 | 1004.67 | 1007.37

NCCCC(=O)O [4-aminobutanoic acid] + O
mass density [kg/m3]
Details | m1 = 0.04607 | m1 = 0.09549 | m1 = 0.1155 | m1 = 0.1652 | m1 = 0.1882 | m1 = 0.2277
288.15 K | 1000.54 | 1002.05 | 1002.65 | 1004.13 | 1004.83 | 1005.99
298.15 K | 998.428 | 999.894 | 1000.48 | 1001.93 | 1002.61 | 1003.73
308.15 K | 995.406 | 996.864 | 997.447 | 998.889 | 999.542 | 1000.66
318.15 K | 991.616 | 993.071 | 993.654 | 995.086 | 995.747 | 996.868

NCCCCCC(=O)O [6-aminohexanoic acid] + O
mass density [kg/m3]
Details | m1 = 0.05814 | m1 = 0.09073 | m1 = 0.1798 | m1 = 0.1945 | m1 = 0.267 | m1 = 0.3522
288.15 K | 1000.76 | 1001.66 | 1004.09 | 1004.48 | 1006.41 | 1008.64
298.15 K | 998.622 | 999.493 | 1001.84 | 1002.22 | 1004.08 | 1006.23
308.15 K | 995.592 | 996.454 | 998.775 | 999.147 | 1000.99 | 1003.12
318.15 K | 991.793 | 992.649 | 994.956 | 995.328 | 997.158 | 999.27

CC(=O)[O-].CC(=O)[O-].[Mg+2] [magnesium acetate] + O
mass density [kg/m3]
Details | 288.15 K | 298.15 K | 308.15 K | 318.15 K
m1 = 0.1 | 1007.01 | 1004.9 | 1001.84 | 998.062
m1 = 0.25 | 1018.2 | 1016.05 | 1012.89 | 1009.15
m1 = 0.5 | 1035.44 | 1033.15 | 1030.05 | 1026.24
m1 = 1 | 1064.68 | 1061.74 | 1059.65 | 1055.19

CC(=O)[O-].[Na+] [sodium ethanoate] + O
mass density [kg/m3]
Details | 288.15 K | 298.15 K | 308.15 K | 318.15 K
m1 = 0.1 | 1003.46 | 1001.31 | 998.243 | 994.384
m1 = 0.25 | 1009.6 | 1007.39 | 1004.27 | 1000.35
m1 = 0.5 | 1019.38 | 1017.07 | 1013.89 | 1009.85
m1 = 1 | 1037.22 | 1034.76 | 1031.54 | 1027.23

O [water] + CC(=O)[O-].[Na+]
Details | mass density [kg/m3]
308.15 K, m2 = 0 | 994.063
